The subject of this experiment is Mycobacterium terrae (ATCC15755). The experiment can be described thus: Quantitative suspension test Mycobacterium terrae without load, room temperature. The class given is cell-based. Particulars: 0.1% added to 30% strength ethanol, exposure time 60 minutes. Here is the method: Various aqueous disinfectants were tested with respect to their activity towards Mycobacterium terrae, cell count 1 to 3×10^9 in a quantitative suspension test without load. The following reduction factors were measured, a reduction factor>5 corresponding to a sufficient Tb activity. For this various amounts of ethanol were added to aqueous active compound solutions and after exposure for 15, 30 and 60 minutes were tested. For testing the tuberculocidal activity, the quantitative suspension test Mycobacterium terrae (ATCC15755) was used in accordance with the Deutsche Gesellscaft für Hygiene and Mikrobiologie [German Society for Hygiene and Microbiology] of 30 Apr. 1997 (Hyg. Med. 22, 1997, issue 6, pages 278ff.).

For `CCCCC(CC)COCC(O)CO` (stereo not shown) [SC 50, 1-(2-ethylhexyl) glycerol ether], the “Tb activity (reduction factor>5 = sufficient)” value is given as “sufficiently Tb active”.

The values above are taken from patent US8440725B2, “Synergistic preparations based on mixtures of glycerol ether with aromatic alcohol for controlling mycobacteria” (Air Liquide Sante (International), priority 2002, dated 2013).
